Test system: osteoclast formation
Test: Inhibition rate of furan derivatives versus osteoclast formation (TRAP staining)
Assay type: cell-based, mice
Details: TRAP-positive multinucleated cells, untreated control set as 100%
Description: First, bone marrow cells were isolated, as follow. After sacrificing 7-9 week female mice by cervical dislocation, femur and tibia were excised aseptically while removing attached soft tissues. After cutting both ends of long bones, 1 ml of an enzyme solution, containing 0.1% collagenase (Gibco), 0.05% trypsin and 0.5 mM EDTA (Gibco), was injected to the bone marrow cavity at one end using a syringe with a 26-guage needle, and bone marrow was then collected. After shaking the recovered bone marrow for 30 min, bone marrow cells were collected, and cultured in α-minimum essential medium (α-MEM) supplemented with 10% FBS for 24 hrs. Then, non-adherent cells were collected, which are osteoclast pregenitors, aliquotted onto culture plates at a density of 2×10^5 cells per well, and cultured for 8 days in α-MEM supplemented with 20 ng/ml of macrophage-colony stimulating factor (M-CSF, Peprotech, USA) and 30 ng/ml RANKL (Peprotech, USA). During the 8 days of culturing, the cells were treated with the Compound 1. Thereafter, osteoclast formation was investigated by fixing the cultured cells and then carrying out TRAP staining, as described in the following Experimental Example 2.2. In addition, resorption activity of osteoclasts was investigated by measuring the absorption area after removing osteoclasts in cultures in calcium phosphate-coated plates, as described in Experimental Example 2.3, below.
After cell culture, the adherent cells were washed with PBS, and TRAP staining was performed, as follows. After being fixed with citrate-acetate-formaldehyde for 5 min, the cells were incubated for 1 hr in acetate buffer (prewarmed at 37° C., pH 5.0) containing naphthol AS-BI phosphate, fast Garnet GBC and 7 mM tartrate buffer (pH 5.0). TRAP-positive multinucleated cells having 3 or more nuclei were considered as osteoclasts.
Osteoclast pregenitor cells were isolated, and their differentiation to mature osteoclasts was induced, according to the same method as in the Experimental Example 2-1, while treated with each of the furan derivatives of the present invention. According to the same method as in the Experimental Example 2-2, TRAP staining performed, and TRAP-positive multinucleated cells were counted. An inhibition rate of each furan derivative against osteoclast formation was expressed as percentage, wherein the number of stained cells in a control not treated the furan derivative was arbitrarily set as 100% (Tables 14 to 16).

| Structure (SMILES) | Inhibition rate against osteoclast formation, % (0.1 μM) | Inhibition rate against osteoclast formation, % (1 μM) | Inhibition rate against osteoclast formation, % (10 μM) |
| --- | --- | --- | --- |
| O=C(c1ccc(COc2cc(Cl)ccc2Cl)o1)N1CCCCCC1 [Compound 133] | 0% | 0% | 0.5% |
| CC(C)(C)c1ccc(OCc2ccc(C(=O)NC3CCCCC3)o2)cc1 [Compound 134] | 0% | 0% |  |
| CC(C)(C)c1ccc(OCc2ccc(C(=O)Nc3ccccc3)o2)cc1 [Compound 136] | 0% | 0% |  |
| O=C(Nc1ccccc1)c1ccc(COc2ccc3ccccc3c2)o1 [Compound 137] | 0% | 0% |  |
| O=C(Nc1cccc(Br)c1)c1ccc(COc2ccc(F)cc2)o1 [Compound 140] | 0% | 0% |  |
| O=C(Nc1ccc(F)cc1)c1ccc(COc2cccc(Cl)c2)o1 [Compound 141] | 0% | 0% |  |
| COc1ccc(NC(=O)c2ccc(COc3ccccc3Cl)o2)cc1Cl [Compound 142] | 0% | 0% |  |
| O=C(Nc1ccc(F)c(F)c1)c1ccc(COc2ccc(I)cc2)o1 [Compound 143] | 0% | 0% |  |
| CCOc1ccccc1NC(=O)c1ccc(COc2ccc(Cl)cc2[N+](=O)[O-])o1 [Compound 144] | 0% |  |  |
| COc1ccc(NC(=O)c2ccc(COc3cc(Cl)ccc3Cl)o2)c(OC)c1 [Compound 145] | 0% |  |  |
| O=C(Nc1ccc(Br)cc1)c1ccc(COc2ccc(I)cc2)o1 [Compound 146] | 0% | 0% |  |
| NC(=O)c1ccc(NC(=O)c2ccc(COc3cc(Cl)ccc3Cl)o2)cc1 [Compound 148] | 0% |  |  |
| COc1ccc(NC(=O)c2ccc(COc3ccc(F)cc3)o2)c([N+](=O)[O-])c1 [Compound 149] | 0% |  |  |
| COc1ccc(NC(=O)c2ccc(COc3ccc(Cl)c(C)c3)o2)cc1 [Compound 150] | 0% | 0% |  |
| O=C(Nc1cc(F)ccc1F)c1ccc(COc2cccc(Cl)c2)o1 [Compound 151] | 0% | 0% |  |
| COC(=O)c1ccc(C)c(NC(=O)c2ccc(COc3ccc(I)cc3)o2)c1 [Compound 152] |  | 0.08% |  |
| Cc1ccc(F)c(NC(=O)c2ccc(COc3ccc(C)cc3[N+](=O)[O-])o2)c1 [Compound 155] | 0% | 0% |  |
| Cc1ccc(F)c(NC(=O)c2ccc(COc3ccccc3[N+](=O)[O-])o2)c1 [Compound 158] | 0% | 0% |  |
| CC(=O)c1ccc(NC(=O)c2ccc(COc3cccc4ccccc34)o2)cc1 [Compound 160] | 0% | 0% |  |
| O=C(Nc1cc(F)ccc1F)c1ccc(COc2ccccc2Cl)o1 [Compound 161] | 0% | 0% |  |
| CCc1cccc(NC(=O)c2ccc(COc3ccc(F)cc3)o2)c1 [Compound 163] | 0% | 0% |  |
| CCCc1ccc(OCc2ccc(C(=O)Nc3ccc(OC)c(OC)c3)o2)cc1 [Compound 164] | 0% | 0% |  |
| COc1ccccc1NC(=O)c1ccc(COc2ccccc2OC)o1 [Compound 166] | 0% | 0% |  |

| Structure (SMILES) | Inhibition rate against osteoclast formation, % (0.1 μM) | Inhibition rate against osteoclast formation, % (1 μM) | Inhibition rate against osteoclast formation, % (10 μM) |
| --- | --- | --- | --- |
| COC(=O)c1ccccc1NC(=O)c1ccc(COc2ccc(Cl)cc2Cl)o1 [Compound 167] | 0% |  |  |
| CCc1ccc(OCc2ccc(C(=O)Nc3cc(C)cc(C)c3)o2)cc1 [Compound 169] | 0% | 0% |  |
| CCCc1ccc(OCc2ccc(C(=O)Nc3cc(Cl)ccc3Cl)o2)cc1 [Compound 170] | 0% | 0% |  |
| COc1ccc(C)cc1NC(=O)c1ccc(COc2cccc(Cl)c2)o1 [Compound 171] | 0% | 0% | 0.42% |
| Cc1cc(OCc2ccc(C(=O)Nc3cccc(C)c3C)o2)ccc1Cl [Compound 172] | 0% | 0% |  |
| Cc1cc(OCc2ccc(C(=O)Nc3ccc(Cl)cc3)o2)ccc1Cl [Compound 173] | 0% | 0% |  |
| COc1ccccc1OCc1ccc(C(=O)Nc2ccccc2Cl)o1 [Compound 174] | 0% | 0% |  |
| COc1ccccc1OCc1ccc(C(=O)Nc2ccc(C)c(C)c2)o1 [Compound 175] | 0% | 0% |  |
| CCCc1ccc(OCc2ccc(C(=O)Nc3ccc(F)cc3F)o2)c(OC)c1 [Compound 176] | 0% | 0% |  |
| Cc1cc(C)cc(OCc2ccc(C(=O)Nc3ccccc3F)o2)c1 [Compound 177] | 0% | 0% |  |
| O=C(Nc1ccccc1F)c1ccc(COc2ccc(Cl)cc2)o1 [Compound 178] | 0% | 0% |  |
| Cc1cccc(C)c1NC(=O)c1ccc(COc2ccc(Cl)cc2)o1 [Compound 179] | 0% | 0% |  |
| COC(=O)c1ccccc1NC(=O)c1ccc(COc2ccc(C)c(C)c2)o1 [Compound 180] | 0% | 0% |  |
| O=C(Nc1cc(C(F)(F)F)ccc1Cl)c1ccc(COc2ccc(Cl)cc2)o1 [Compound 181] | 0% | 0% |  |
| COc1cc([N+](=O)[O-])ccc1NC(=O)c1ccc(COc2ccc(Cl)cc2)o1 [Compound 182] | 0% | 0% |  |
| O=C(Nc1ccccc1[N+](=O)[O-])c1ccc(COc2ccccc2Cl)o1 [Compound 183] | 0% | 0% |  |
| O=C(Nc1ccc(F)cc1F)c1ccc(COc2c(F)c(F)cc(F)c2F)o1 [Compound 185] | 0% | 0% |  |
| Cc1ccc(OCc2ccc(C(=O)Nc3ccc(F)c(F)c3)o2)cc1C [Compound 186] | 0% | 0% |  |
| COc1ccc(NC(=O)c2ccc(COc3ccccc3Br)o2)c(OC)c1 [Compound 188] | 0% | 0% | 7.6% |
| COc1ccccc1NC(=O)c1ccc(COc2ccc(C(C)(C)C)cc2)o1 [Compound 189] | 0% | 0% |  |
| O=C(Nc1ccc(I)cc1)c1ccc(COc2ccccc2Br)o1 [Compound 190] | 0% | 0% |  |
| O=C(Nc1cccc([N+](=O)[O-])c1)c1ccc(COc2ccc(I)cc2)o1 [Compound 191] | 0% | 0% |  |

From US20080221205A1, “FURAN DERIVATIVES FOR PREVENTING AND CURING OSTEOPOROSIS AND PHARMACEUTICAL COMPOSITIONS CONTAINING THE SAME” (priority 2002, published 2008)
